In brackets after ≈: the same amount, converted by molar mass. Where only a bound is given, the exact number is not on record here.

As usually defined, the NOAEL is the highest tested level that showed no adverse finding.

The test system of data set [1] is Oncorhynchus mykiss.
Data set [2] has as its system Rattus norvegicus.
Data set [3] deals with Apis mellifera. Particulars: acute; duration: 48 hours; dermal; mortality.
The subject of data set [4] is Daphnia magna. As to conditions: chronic/long-term; duration: 21 days; reproduction.
For data set [5], the system named is Colinus virginianus. Particulars: acute; oral; mortality.
For data set [6], the system named is Bibionidae. Particulars: chronic/long-term; duration: 25 days; development.
Data set [7] concerns Tagia sp. As to conditions: acute; duration: 14 days; mortality.
In data set [8] the test system is Anas platyrhynchos.

With `CCCN(CCC)C(=O)SCc1ccccc1` [Prosulfocarb], the LC50 was determined as 0.84 µg/mL (≈ 3.34 µM) in data set [1] (acute, duration: 96 hours, mortality) and 144 mg/kg in data set [7]. Moreover, the NOEC in data set [1] (chronic/long-term, duration: 21 days, other) was determined as 0.31 mg/L; in data set [4], 0.045 mg/L; in data set [6], 1.25 mg/L. Also, the LD50 in data set [2] (acute, oral, mortality) is 1820 mg/kg-day; in data set [3], over 80 µg/piece; in data set [5], over 2250 mg/kg-day; in data set [8] (short-term, oral, feed, mortality), over 1510 mg/kg-day. Moreover, the NOAEL was 0.5 mg/kg-day in data set [2] (chronic, duration: 2 years, oral, body weight); 0.5 mg/kg-day in data set [2] (reproduction developmental, body weight); 10 mg/kg-day in data set [2] (reproduction developmental, clinical signs); over 50 mg/kg-day in data set [2] (reproduction developmental, reproduction); 1 mg/kg-day in data set [2] (subchronic, duration: 90 days, oral, body weight). The NOEL in data set [8] (reproductive) was 131 mg/kg-day.

Source of the values: EPA's ToxValDB 9.5 (doi:10.2903/j.efsa.2007.111r).
